Test system: patient diagnosed with hemophagocytic syndrome
Test: Clinical protocol for hemophagocytic syndrome (patient cases)
Assay type: in vivo, human
Description: Example 1. Clinical Protocol for Hemophagocytic Syndrome
Method of administration: orally administered once before breakfast in the morning and once after 12 h, with 28 consecutive days of administration as one treatment cycle.
Drug: the compound of formula I in 5 mg or 20 mg tablets, the compound of formula I being shown as its stereoisomer, a compound of formula II
[drawing 5] 1.2. Inclusion Criteria • 1) Age ≥18 years; ECOG scoring: 0-3; an expected survival of more than 3 months; • 2) A patient unambiguously diagnosed as having a first occurrence or first recurrence of HLH according to the HLH-2004 criteria; • 3) Other medication for HLH, if any, has been interrupted for 2 weeks or more; it has been 4 weeks or more since major surgery, if any; • 4) Laboratory tests should meet the following: blood routine examination: hemoglobin (Hb)≥60 g/L; absolute neutrophil count (ANC)≥0.5×10^9/L; platelet (PLT)≥30×10^9/L; liver function: serum total bilirubin (TBIL)<171 μmol/L; renal function: serum creatinine (Cr)≤1.5×ULN; blood coagulation function: activated partial thromboplastin time (APTT) and international normalized ratio (INR)≤1.5×ULN; • 5) Female patients should agree to take contraceptive measures (such as intrauterine devices [IUD], contraceptives or condoms) during the study and for at least 6 months after the study; serum pregnancy test results should be negative within 7 days before the study, and the patients must not be breastfeeding; male subjects should agree to take contraceptive measures during the study and for at least 6 months after the study; • 6) Voluntary participation, written informed consent and good compliance. 1.3. Evaluation Method
The therapeutic effect was evaluated by referring to the criteria of “2018 HLH Chinese Expert Consensus”. During induction treatment, it was recommended to evaluate the therapeutic effect every 2 weeks.
1.4. Therapeutic Effects Case 1
(§1) A patient diagnosed with hemophagocytic syndrome was given 20 mg/dose of tablets of the compound of formula II according to the administration regimen described in 1.1. The blood was tested regularly for the plasma concentration. The indexes such as blood routine examination results, biochemical profile and blood coagulation were dynamically monitored, and the patient's condition and vital signs were continuously dynamically monitored closely.
as §1, with “15” for “20”

[1] = Case 2, 15 mg/dose tablets orally twice a day, after one administration cycle

## N#CC[C@H](C1CCCC1)n1cc(-c2ncnc3[nH]ccc23)c(N)n1 [compound of formula II]
Case 1, patient, 20 mg/dose tablets orally twice a day (12 h interval), after one administration cycle (28 days)
  disease status: remained stable
Case 1, patient, 20 mg/dose tablets orally twice a day, after one administration cycle (28 days)
  tolerability of the treatment: tolerable
Case 2, patient, 15 mg/dose tablets orally twice a day (12 h interval), after one administration cycle (28 days)
  disease status: remained stable
[1]
  ferritin level decrease: ≥ 25%
  sCD25 level decrease (factor): 3/2
  therapeutic effect evaluation (2018 HLH Chinese Expert Consensus criteria): partial response
  tolerability of the treatment: tolerable
